According to patent US20090185973A1, “METHODS, COMPOSITIONS, UNIT DOSAGE FORMS, AND KITS FOR PHARMACOLOGIC STRESS TESTING WITH REDUCED SIDE EFFECTS” (ADENOBIO N.V., priority 2008, published 2009):
Values joined by “and” are separate entries in the source; they are usually repeats but may differ in a detail not shown here. Equal values may be shown once. Read-outs that look alike come from different tables or passages of the source.

Columns and labels:
Format in all cases: in vivo, human
coronary patients [1] = experiment: TTDE coronary reserve study, concurrent administration for two minutes (Example 3); conditions: 31 patients
Source text: (§1) Primary efficacy end-points were peak and mean diastolic flow velocities (their measurements reflect coronary blood flow values). The secondary end-point was patient's tolerance to the procedure.

[2] = test system: patients suffering from ischemic heart disease; experiment: Tolerance: occurrence and severity of adverse events (Example 1)
Source text: Cumulative results on the severity of the three subjective symptoms of the composite (chest pain, dyspnea, flushing) rated from 0 to 30. Cumulative results on the severity of the three subjective symptoms of the composite (chest pain, dyspnea, flushing) rated from 0 to 30.

patients [3] = experiment: Priming dose effect with the sequential administration mode (Example 5); conditions: N = 10
Source text: Again there was no difference between the two methods for both peak and mean velocities.

coronary patients [4] = experiment: Tolerance, severity of main symptoms (Example 3)
Source text: as §1

patients [5] = test system: patients
[6] = test system: patients with normal coronary reserve; experiment: Priming dose effect: time to peak and return to baseline, concurrent administration (Example 4); conditions: for Time to peak, individual patients / Return to BL, individual patients / Return to BL, Mean / Return to BL, Total / Time to peak, Mean / Time to peak, Total: N = 6; for Time to peak, individual patients / Return to BL, individual patients: listed as ADE; for Time to peak (near maximal hyperemia): adenosine alone vs concurrent combination without priming dose, on average
Source text: As a test, a low priming dose of dipyridamole was combined with the concurrent administration of the two drugs to determine whether the time to peak and the occurrence of near maximal hyperaemia could be accelerated, especially when infusion time is reduced by, for example, one minute.

[7] = test system: patients suffering from ischemic heart disease; experiment: Transthoracic doppler echocardiography (TTDE) blood flow velocity in LAD, sequential administration (Example 1); conditions: mean; for Mean velocity Min / Peak velocity Min: at rest (basal); for Mean velocity Max / Peak velocity Max: under stress
Procedure: In the combined administration, each of the two agents was administered at a dosage lower than its clinically preferred dosage when used as a single agent for myocardial perfusion imaging. Effects were measured using noninvasive transthoracic doppler echocardiography (TTDE).
Primary efficacy end-points were peak and mean diastolic flow velocities (measured as reflecting coronary blood flow values). The secondary end-point was patient tolerance to the procedure. The protocol was designed as follows.
Forty (40) consecutive patients suffering from ischemic heart disease were enrolled. Each patient served as their own control.
[…] Total doses are between about 4-6% of the lowest single-agent total dose of dipyridamole (i.e., 0.56 mg/kg, infused over a total of 4 minutes).
This dose is half the standard single-agent dosage rate of 140 μg/kg/min.

patients [8] = experiment: Control: two consecutive adenosine infusions, TTDE velocities; conditions: for MV Min, individual patients / PV Min, individual patients / MV Min, mean / PV Min, mean: at rest; for MV Min, individual patients / PV Min, individual patients / PV Max, individual patients / MV Max, individual patients: ADE1 first, ADE2 second adenosine infusion; for MV Min, mean / PV Min, mean / MV Max, mean / PV Max, mean: mean of 5 patients; for PV Max, individual patients / MV Max, individual patients / MV Max, mean / PV Max, mean: under stress
Source text: Abbreviations used in the table are defined below:

[9] = Delta = peak-BL, concurrent dipyridamole 10 + adenosine 70 μg/kg/min 2 min vs adenosine alone
[10] = concurrent dipyridamole 10 + adenosine 70 μg/kg/min 2 min vs adenosine alone
[11] = DIP4 (n = 5), dipyridamole 35 μg/kg
[12] = DIP5 (n = 30), dipyridamole 28 μg/kg
[13] = DIP6 (n = 5), dipyridamole 23 μg/kg
[14] = TOTAL (n = 40), all dipyridamole doses
[15] = all 40 patients, ADE 140 μg/kg/min, All SC (DIP 4/5/6)
[16] = adenosine 70 μg/kg/min + dipyridamole 10 μg/kg/min vs adenosine 140 μg/kg/min, 2 min
[17] = DIP dose 28 μg/kg, ADE 140 μg/kg/min
[18] = DIP dose 35 μg/kg, ADE 140 μg/kg/min, listed as ADE
[19] = DIP dose 40 μg/kg, ADE 140 μg/kg/min, listed as ADE
[20] = ADE vs C concurrent with dipyridamole priming dose (0.1 mg)
[21] = with dipyridamole priming dose (0.1 mg)
[22] = without dipyridamole priming dose
[23] = before infusion, DIP5: SC = dipyridamole 28 μg/kg + adenosine 70 μg/kg/min, ADE = adenosine 140 μg/kg/min, 30 patients
[24] = DIP4: SC = dipyridamole 35 μg/kg + adenosine 70 μg/kg/min, ADE = adenosine 140 μg/kg/min, 5 patients
[25] = DIP6: SC = dipyridamole 23 μg/kg + adenosine 70 μg/kg/min, ADE = adenosine 140 μg/kg/min, 5 patients
[26] = DIP4: SC = dipyridamole 35 μg/kg IV bolus then adenosine 70 μg/kg/min, ADE = adenosine alone 140 μg/kg/min, 5 patients
[27] = DIP5: SC = dipyridamole 28 μg/kg IV bolus then adenosine 70 μg/kg/min 3 min, ADE = adenosine alone 140 μg/kg/min 3 min, 30 patients
[28] = DIP6: SC = dipyridamole 23 μg/kg IV bolus then adenosine 70 μg/kg/min, ADE = adenosine alone 140 μg/kg/min, 5 patients
[29] = cumulated, all 40 patients: SC = dipyridamole 23, 28 or 35 μg/kg bolus then adenosine 70 μg/kg/min, ADE = adenosine alone 140 μg/kg/min

## Nc1ncnc2c1ncn2[C@@H]1O[C@H](CO)[C@@H](O)[C@H]1O [adenosine]
Coronary patients [1]; [9]
  Delta mean velocity: 41.5 ± 15.3
  Delta peak velocity: 54.4 ± 20.5
Coronary patients [1]; at rest
  Peak velocity at baseline: 33.0 ± 12.9
Coronary patients [1]; at rest, concurrent dipyridamole 10 μg/kg/min + adenosine 70 μg/kg/min 2 min vs adenosine alone 140 mg/kg/min (so in the source)
  Mean velocity at baseline: 25.2 ± 8.9
Coronary patients [1]; [10]
  Coronary reserve assessment using mean velocity: 2.79 ± 0.90
  Coronary reserve assessment using peak velocity: 2.82 ± 0.96
[2]; [11]
  Severity of dyspnea: 1.4 ± 1.95
  Severity of flushing: 2.9 ± 2.88
[2]; DIP4 (n = 5): SC dipyridamole 35 μg/kg + adenosine 70 μg/kg/min vs adenosine alone 140 μg/kg/min
  Severity of chest pain: 1.2 ± 2.68
[2]; [12]
  Severity of dyspnea: 2.33 ± 2.59
  Severity of flushing: 2.35 ± 2.53
[2]; DIP5 (n = 30): SC dipyridamole 28 μg/kg + adenosine 70 μg/kg/min vs adenosine alone 140 μg/kg/min
  Severity of chest pain: 1.12 ± 1.95
[2]; [13]
  Severity of dyspnea: 5 ± 3.08
  Severity of flushing: 3.2 ± 3.42
[2]; DIP6 (n = 5): SC dipyridamole 23 μg/kg + adenosine 70 μg/kg/min vs adenosine alone 140 μg/kg/min
  Severity of chest pain: 0 ± 0
[2]; [14]
  Severity of chest pain: 0.99 ± 1.93
  Severity of dyspnea: 2.55 ± 2.71
  Severity of flushing: 2.52 ± 2.63
[2]; [15]
  Chest pain, frequency: 22.5%
  Dyspnea, # patients reporting events: 20
  Dyspnea, frequency: 50%
  Flushing, # patients reporting events: 21
  Flushing, frequency: 52.5%
[2]; all 40 patients, ADE adenosine alone 140 μg/kg/min, All SC (DIP 4/5/6) dipyridamole 23, 28 or 35 μg/kg + adenosine 70 μg/kg/min
  Chest pain, # patients reporting events: 9
Patients [3]; ADE 140 μg/kg/min vs C sequential (Dip 40 μg/kg + Ade 70 μg/kg/min), listed as ADE
  Return to BL, individual patients: 30 seconds (2×) and 60 seconds (3×) and 50 seconds and 35 seconds (2×) and 40 seconds and 28 seconds
Patients [3]; ADE 140 μg/kg/min vs C sequential (Dip 40 μg/kg bolus + Ade 70 μg/kg/min over 2 minutes), listed as ADE
  Time to peak, individual patients: 70 seconds and 50 seconds (2×) and 75 seconds and 60 seconds (2×) and 35 seconds and 38 seconds and 90 seconds and 40 seconds
Patients [3]; sequential administration
  Return to BL, Mean: 43 s
  Return to BL, Total: 428 s
  Time to peak, Mean: 57 s
  Time to peak, Total: 568 s
Coronary patients [4]; Example 3 series
  Patients who experienced thoracic discomfort: 4 patients
Coronary patients [4]; [16]
  Severity of chest pain: 0.68 ± 1.87
  Severity of dyspnea: 3.64 ± 3.67
  Severity of flushing: 4.50 ± 3.15
Patients [5]; DIP dose 28 μg/kg bolus alone, ADE 140 μg/kg/min 3 min
  PV Max, individual patient: 84 cm/sec
Patients [5]; [17]
  MV Max, individual patient: 64 cm/s
  MV Min, individual patient: 20 cm/s
  PV Min, individual patient: 27 cm/sec
Patients [5]; DIP dose 35 μg/kg bolus alone, ADE 140 μg/kg/min 3 min, listed as ADE
  PV Max, individual patients: 88 cm/sec and 84 cm/sec
Patients [5]; [18]
  MV Max, individual patients: 71 cm/s and 61 cm/s
  MV Min, individual patients: 21 cm/s and 23 cm/s
  PV Min, individual patients: 25 cm/sec and 32 cm/sec
Patients [5]; DIP dose 40 μg/kg bolus alone, ADE 140 μg/kg/min 3 min, listed as ADE
  PV Max, individual patients: 92 cm/sec and 112 cm/sec
Patients [5]; DIP dose 40 μg/kg, ADE 140 μg/kg/min
  PV Min, individual patients: 33 cm/sec
Patients [5]; [19]
  MV Max, individual patients: 67 cm/s and 86 cm/s
  MV Min, individual patients: 23 cm/s and 25 cm/s
[6]; ADE 140 μg/kg/min vs C (Dip 10 μg/kg/min + Ade 70 μg/kg/min) concurrent without dipyridamole priming dose
  Time to peak, individual patients: 56 s and 120 s and 50 s and 85 s and 80 s and 75 s
[6]; ADE 140 μg/kg/min vs C concurrent without dipyridamole priming dose
  Return to BL, individual patients: 75 seconds and 60 seconds (3×) and 100 seconds and 48 seconds
[6]; [20]
  Return to BL, individual patients: 55 s and 65 s and 54 s and 67 s and 48 s and 60 s
  Time to peak, individual patients: 74 s and 55 s and 45 s and 44 s and 30 s and 40 s
[6]
  Time to peak (near maximal hyperemia): about 1 minute
[6]; listed as Adenoscan
  Time to peak (near maximal hyperemia): ~1 min
[6]; [21]
  Return to BL, Mean: 58.1 s
  Return to BL, Total: 349 s
  Time to peak, Mean: 48 s
  Time to peak, Total: 288 s
[6]; [22]
  Return to BL, Mean: 67.1 s
  Return to BL, Total: 403 s
  Time to peak, Mean: 69.3 s
  Time to peak, Total: 416 s
[7]; [23]
  Mean velocity Min: 23.1 cm/s
  Peak velocity Min: 30.6 cm/sec
[7]; [24]
  Mean velocity Min: 22.2 cm/s
  Peak velocity Min: 28 cm/sec
[7]; [25]
  Mean velocity Min: 28.2 cm/s
  Peak velocity Min: 37.6 cm/sec
[7]; cumulated, all 40 patients
  Mean velocity Min: 23.7 cm/s
  Peak velocity Min: 31.2 cm/sec
[7]; [26]
  Mean velocity Max: 60.4 cm/s
  Peak velocity Max: 80 cm/sec
[7]; [27]
  Mean velocity Max: 61.4 cm/s
  Peak velocity Max: 82.6 cm/sec
[7]; [28]
  Mean velocity Max: 80.2 cm/s
  Peak velocity Max: 107 cm/sec
[7]; [29]
  Mean velocity Max: 63.6 cm/s
  Peak velocity Max: 85.3 cm/sec
Patients [8]; 5 patients
  Max velocity differential MV (ADE1 − ADE2): 52.6 (ADE2) = 2.4 cm/sec
  Max velocity differential PV (ADE1 − ADE2): 70.8 (ADE2) = 4.8 cm/sec
Patients [8]; 140 mcg/kg/min, 5 minute interval, p>0.05
  Difference in velocity measurements between two consecutive infusions: no difference was seen
Patients [8]; listed as ADE1
  MV Min, individual patients: 20 cm/s and 25 cm/s and 17 cm/s and 22 cm/s and 23 cm/s
  PV Min, individual patients: 28 cm/sec and 34 cm/sec and 23 cm/sec and 30 cm/sec (2×)
  MV Min, mean: 21.4 cm/s
  PV Min, mean: 29 cm/sec
  MV Max, mean: 55 cm/s
  PV Max, mean: 75.6 cm/sec
Patients [8]; listed as ADE2
  MV Min, individual patients: 20 cm/s and 23 cm/s and 16 cm/s and 22 cm/s and 21 cm/s
  PV Min, individual patients: 25 cm/sec and 31 cm/sec and 22 cm/sec and 29 cm/sec and 26 cm/sec
  MV Min, mean: 20.4 cm/s
  PV Min, mean: 26.6 cm/sec
  MV Max, mean: 52.6 cm/s
  PV Max, mean: 70.8 cm/sec
Patients [8]; 140 mcg/kg/min, 5 minute interval, listed as ADE1
  PV Max, individual patients: 70 cm/sec and 68 cm/sec and 65 cm/sec and 102 cm/sec and 73 cm/sec
Patients [8]; 140 mcg/kg/min, 5 minute interval, listed as ADE2
  PV Max, individual patients: 62 cm/sec and 60 cm/sec and 66 cm/sec and 103 cm/sec and 63 cm/sec
Patients [8]; 140 mcg/kg/min, listed as ADE1
  MV Max, individual patients: 50 cm/s and 49 cm/s and 48 cm/s and 75 cm/s and 53 cm/s
Patients [8]; 140 mcg/kg/min, listed as ADE2
  MV Max, individual patients: 48 cm/sec (2×) and 45 cm/sec and 75 cm/sec and 47 cm/sec
